# Data as given in PubChem BioAssay (NCI).
#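 Exposure lasted 48 hours, with cells grown in 96-well plates and compounds tested at five concentrations. At the GI50, growth is halved. TGI is the concentration that stops growth completely.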
# What was measured:
# Assay in all cases: growth of human tumour cells (NCI), 48 h
# A549 NSCLC = tested on: A549 NSCLC
# SF-295 CNS = tested on: SF-295 CNS
# HT29 colon = tested on: HT29 colon
# U251 CNS = tested on: U251 CNS
# 786-0 renal = tested on: 786-0 renal
# UO-31 renal = tested on: UO-31 renal
# COLO 205 colon = tested on: COLO 205 colon
# MDA-MB-435 = tested on: MDA-MB-435
# LOX IMVI melanoma = tested on: LOX IMVI melanoma
# K-562 leukemia = tested on: K-562 leukemia
# OVCAR-4 ovarian = tested on: OVCAR-4 ovarian
# M14 melanoma = tested on: M14 melanoma
# PC-3 prostate = tested on: PC-3 prostate
# HCC-2998 colon = tested on: HCC-2998 colon
# SR leukemia = tested on: SR leukemia
# MALME-3M melanoma = tested on: MALME-3M melanoma
# UACC-62 melanoma = tested on: UACC-62 melanoma
# NCI-H23 lung = tested on: NCI-H23 lung
# HCT-15 colon = tested on: HCT-15 colon
# RPMI-8226 leukemia = tested on: RPMI-8226 leukemia
# EKVX NSCLC = tested on: EKVX NSCLC
# SK-MEL-2 melanoma = tested on: SK-MEL-2 melanoma
# NCI-H522 lung = tested on: NCI-H522 lung
# OVCAR-8 ovarian = tested on: OVCAR-8 ovarian
# BT-549 breast = tested on: BT-549 breast
# SK-OV-3 ovarian = tested on: SK-OV-3 ovarian
# ACHN renal = tested on: ACHN renal
# MOLT-4 leukemia = tested on: MOLT-4 leukemia
# A498 renal = tested on: A498 renal
# MCF7 breast = tested on: MCF7 breast
# NCI-H226 lung = tested on: NCI-H226 lung
# SN12C renal = tested on: SN12C renal
# SF-268 CNS = tested on: SF-268 CNS
# CCRF-CEM leukemia = tested on: CCRF-CEM leukemia
# RXF 393 renal = tested on: RXF 393 renal
# SK-MEL-5 melanoma = tested on: SK-MEL-5 melanoma
# HOP-92 NSCLC = tested on: HOP-92 NSCLC
# OVCAR-5 ovarian = tested on: OVCAR-5 ovarian
# UACC-257 melanoma = tested on: UACC-257 melanoma
# MDA-MB-231 breast = tested on: MDA-MB-231 breast
# KM12 colon = tested on: KM12 colon
# HS 578T breast = tested on: HS 578T breast
# CAKI-1 renal = tested on: CAKI-1 renal
# OVCAR-3 ovarian = tested on: OVCAR-3 ovarian
# TK-10 renal = tested on: TK-10 renal
# HOP-62 NSCLC = tested on: HOP-62 NSCLC
# NCI/ADR-RES ovarian = tested on: NCI/ADR-RES ovarian
# T-47D breast = tested on: T-47D breast
# SNB-19 CNS = tested on: SNB-19 CNS
# SF-539 CNS = tested on: SF-539 CNS
# HCT-116 colon = tested on: HCT-116 colon
# NCI-H460 lung = tested on: NCI-H460 lung
# DU-145 prostate = tested on: DU-145 prostate
# IGROV1 ovarian = tested on: IGROV1 ovarian
# SK-MEL-28 melanoma = tested on: SK-MEL-28 melanoma
# SW-620 colon = tested on: SW-620 colon
smiles,measurement,setting,value
O=C1c2cc(Br)ccc2-c2c1c1ccc([N+](=O)[O-])cc1c(=O)n2CCCCl,GI50,A549 NSCLC,114 nM
same,TGI,A549 NSCLC,> 33900 nM
same,GI50,SF-295 CNS,< 47.9 nM
same,TGI,SF-295 CNS,3560 nM
same,GI50,HT29 colon,309 nM
same,TGI,HT29 colon,12100 nM
same,GI50,U251 CNS,< 21.9 nM
same,TGI,U251 CNS,15600 nM
same,GI50,786-0 renal,659 nM
same,TGI,786-0 renal,2260 nM
same,GI50,UO-31 renal,57.7 nM
same,TGI,UO-31 renal,3430 nM
same,GI50,COLO 205 colon,1390 nM
same,TGI,COLO 205 colon,> 100000 nM
same,GI50,MDA-MB-435,489 nM
same,TGI,MDA-MB-435,6120 nM
same,GI50,LOX IMVI melanoma,< 24.8 nM
same,TGI,LOX IMVI melanoma,5120 nM
same,GI50,K-562 leukemia,< 49.5 nM
same,TGI,K-562 leukemia,> 43700 nM
same,GI50,OVCAR-4 ovarian,11200 nM
same,TGI,OVCAR-4 ovarian,77700 nM
same,GI50,M14 melanoma,534 nM
same,TGI,M14 melanoma,1780 nM
same,GI50,PC-3 prostate,184 nM
same,TGI,PC-3 prostate,> 100000 nM
same,GI50,HCC-2998 colon,1550 nM
same,TGI,HCC-2998 colon,13000 nM
same,GI50,SR leukemia,< 10 nM
same,GI50,MALME-3M melanoma,250 nM
same,TGI,MALME-3M melanoma,7740 nM
same,GI50,UACC-62 melanoma,26.4 nM
same,TGI,UACC-62 melanoma,1080 nM
same,GI50,NCI-H23 lung,1540 nM
same,TGI,NCI-H23 lung,8040 nM
same,GI50,HCT-15 colon,1410 nM
same,TGI,HCT-15 colon,> 100000 nM
same,GI50,RPMI-8226 leukemia,< 28.9 nM
same,TGI,RPMI-8226 leukemia,647 nM
same,GI50,EKVX NSCLC,10600 nM
same,TGI,EKVX NSCLC,> 100000 nM
same,GI50,SK-MEL-2 melanoma,10800 nM
same,TGI,SK-MEL-2 melanoma,37300 nM
same,GI50,NCI-H522 lung,63.6 nM
same,TGI,NCI-H522 lung,5380 nM
same,GI50,OVCAR-8 ovarian,293 nM
same,TGI,OVCAR-8 ovarian,17400 nM
same,GI50,BT-549 breast,2980 nM
same,TGI,BT-549 breast,> 63800 nM
same,GI50,SK-OV-3 ovarian,160 nM
same,TGI,SK-OV-3 ovarian,16000 nM
same,GI50,ACHN renal,< 15.1 nM
same,TGI,ACHN renal,6790 nM
same,GI50,MOLT-4 leukemia,< 10 nM
same,GI50,A498 renal,2200 nM
same,TGI,A498 renal,19400 nM
same,GI50,MCF7 breast,< 10 nM
same,TGI,MCF7 breast,> 44000 nM
same,GI50,NCI-H226 lung,100 nM
same,TGI,NCI-H226 lung,3590 nM
same,GI50,SN12C renal,34.7 nM
same,TGI,SN12C renal,2200 nM
same,GI50,SF-268 CNS,< 25.8 nM
same,TGI,SF-268 CNS,35500 nM
same,GI50,CCRF-CEM leukemia,< 10 nM
same,TGI,CCRF-CEM leukemia,245 nM
same,GI50,RXF 393 renal,487 nM
same,TGI,RXF 393 renal,14200 nM
same,GI50,SK-MEL-5 melanoma,240 nM
same,TGI,SK-MEL-5 melanoma,1020 nM
same,GI50,HOP-92 NSCLC,453 nM
same,TGI,HOP-92 NSCLC,23900 nM
same,GI50,OVCAR-5 ovarian,2570 nM
same,TGI,OVCAR-5 ovarian,21800 nM
same,GI50,UACC-257 melanoma,287 nM
same,TGI,UACC-257 melanoma,2850 nM
same,GI50,MDA-MB-231 breast,12900 nM
same,TGI,MDA-MB-231 breast,> 96100 nM
same,GI50,KM12 colon,500 nM
same,TGI,KM12 colon,> 41600 nM
same,GI50,HS 578T breast,19500 nM
same,TGI,HS 578T breast,> 72500 nM
same,GI50,CAKI-1 renal,< 28.5 nM
same,TGI,CAKI-1 renal,2730 nM
same,GI50,OVCAR-3 ovarian,1110 nM
same,TGI,OVCAR-3 ovarian,14500 nM
same,GI50,TK-10 renal,13800 nM
same,TGI,TK-10 renal,> 57200 nM
same,GI50,HOP-62 NSCLC,837 nM
same,TGI,HOP-62 NSCLC,8280 nM
same,GI50,NCI/ADR-RES ovarian,239 nM
same,TGI,NCI/ADR-RES ovarian,7900 nM
same,GI50,T-47D breast,14.4 nM
same,TGI,T-47D breast,18800 nM
same,GI50,SNB-19 CNS,< 10 nM
same,TGI,SNB-19 CNS,7190 nM
same,GI50,SF-539 CNS,182 nM
same,TGI,SF-539 CNS,3310 nM
same,GI50,HCT-116 colon,1050 nM
same,TGI,HCT-116 colon,5940 nM
same,GI50,NCI-H460 lung,< 10 nM
same,TGI,NCI-H460 lung,5400 nM
same,GI50,DU-145 prostate,84.9 nM
same,TGI,DU-145 prostate,20100 nM
same,GI50,IGROV1 ovarian,130 nM
same,TGI,IGROV1 ovarian,4580 nM
same,GI50,SK-MEL-28 melanoma,1610 nM
same,TGI,SK-MEL-28 melanoma,> 100000 nM
same,GI50,SW-620 colon,53.3 nM
same,TGI,SW-620 colon,> 100000 nM
